Common to all, as to type: in vivo
Assay [1] concerns Myzus persicae. Put plainly: Myzus persicae drench test (MYZUPE D), savoy cabbage plants. The note with it: soil, 240 h, 10 dat, read-out: % efficacy. As for the experimental part:
[table] To produce an appropriate active ingredient formulation, 1 part by weight of active ingredient is mixed with the specified amounts of solvent and emulsifier and the concentrate is diluted to the desired concentration with water, it being necessary to take into account the volume of soil into which drenching is effected. It should be ensured that a concentration of 40 ppm of emulsifier in the soil is not exceeded. For production of further test concentrations, the mixture is diluted with water. Savoy cabbage plants (Brassica oleracea) in soil pots, infested by all stages of the green peach aphid (Myzus persicae), are drenched with an active ingredient formulation of the desired concentration. After the desired time, the efficacy in % is determined. 100% means that all the aphids have been killed; 0% means that no aphids have been killed.

Assay [2] has as its system Tetranychus urticae. Put plainly: Tetranychus urticae spray test, OP-resistant (TETRUR). The following applies: Tetranychus urticae, 144 h; TETRUR, 100 g/ha, 6 dat; read-out: % efficacy. The procedure: [table] To produce a suitable active ingredient formulation, 1 part by weight of active ingredient is dissolved with the specified parts by weight of solvent and made up to the desired concentration with water containing an emulsifier concentration of 1000 ppm. To produce further test concentrations, the formulation is diluted with emulsifier-containing water. Discs of bean leaves (Phaseolus vulgaris) infested with all stages of the greenhouse red spider mite (Tetranychus urticae) are sprayed with an active ingredient formulation of the desired concentration. After 6 days, the efficacy in % is determined. 100% means that all the spider mites have been killed; 0% means that no spider mites have been killed.

In assay [3] the test system is Myzus persicae. Nature of the assay: Myzus persicae spray test (MYZUPE S), bell pepper plants. The following applies: 144 h, 6 dat, read-out: % efficacy. As for the experimental part: [table] To produce an appropriate active ingredient formulation, 1 part by weight of active ingredient is dissolved with the specified parts by weight of solvent and made up with water containing an emulsifier concentration of 1000 ppm until the desired concentration is attained. To produce further test concentrations, the mixture is diluted with emulsifier-containing water. If addition of ammonium salts or/and penetrants is required, these are each added to the preparation solution in a concentration of 1000 ppm. Bell pepper plants (Capsicum annuum) severely infested by the green peach aphid (Myzus persicae) are treated by spraying with the active ingredient formulation in the desired concentration. After the desired time, the kill in % is determined. 100% means that all the animals have been killed; 0% means that no animals have been killed.

Assay [4] concerns Phaedon cochleariae. Nature of the assay: Phaedon cochleariae spray test (PHAECO), Chinese cabbage leaf discs. The note with it: Phaedon cochleariae, foliar, 168 h; for pest or weed control at 100 g/ha: 7 days (7 dat), read-out: efficacy. As for the experimental part:
(§1) [table] To produce a suitable active ingredient formulation, 1 part by weight of active ingredient is dissolved with the specified parts by weight of solvent and made up to the desired concentration with water containing an emulsifier concentration of 1000 ppm. To produce further test concentrations, the formulation is diluted with emulsifier-containing water. Discs of Chinese cabbage leaves (Brassica pekinensis) are sprayed with an active ingredient formulation of the desired concentration and, after drying, populated with larvae of the mustard beetle (Phaedon cochleariae). After 7 days, the efficacy in % is determined. 100% means that all the beetle larvae have been killed; 0% means that no beetle larvae have been killed. [table] To produce an appropriate active ingredient formulation, 1 part by weight of active ingredient is dissolved with the stated parts by weight of solvent and made up with water containing an emulsifier concentration of 1000 ppm until the desired concentration is attained. For production of further test concentrations, the mixture is diluted with emulsifier-containing water. Discs of chinese cabbage leaves (Brassica pekinensis) are sprayed with an active ingredient formulation of the desired concentration and, after drying, populated with larvae of the mustard beetle (Phaedon cochleariae). After the desired time, the efficacy in % is determined. 100% means that all beetle larvae have been killed; 0% means that no beetle larvae have been killed.

Assay [5] deals with Myzus persicae. Nature of the assay: Myzus persicae spray test (MYZUPE), Chinese cabbage leaf discs. The following applies: Myzus persicae, foliar, 120 h. As for the experimental part:
as §1, with “pekinensis) infested by all stages of the green peach aphid (Myzus persicae)” for “pekinensis)”, “concentration.” for “concentration and, after drying, populated with larvae of the mustard beetle (Phaedon cochleariae).”, “5” for “7”, “aphids” for “beetle larvae”

Assay [6] deals with Nezara viridula. Nature of the assay: Nezara viridula spray test (NEZARA / NEZAVI). The note with it: Nezara viridula, 96 h, 4 dat, read-out: % efficacy. The procedure:
[table] To produce an appropriate active ingredient formulation, 1 part by weight of active ingredient is dissolved with the specified parts by weight of solvent and made up with water containing an emulsifier concentration of 1000 ppm until the desired concentration is attained. To produce further test concentrations, the mixture is diluted with emulsifier-containing water. If addition of ammonium salts or/and penetrants is required, these are each added to the preparation solution in a concentration of 1000 ppm. Barley plants (Hordeum vulgare) infected with larvae of the southern green shield bug (Nezara viridula) are sprayed with an active ingredient formulation of the desired concentration. After the desired time, the efficacy in % is determined. 100% means that all bugs have been killed; 0% means that no bugs have been killed.

Assay [7] has as its system Myzus persicae. Nature of the assay: Myzus persicae oral test. The following applies: 120 h, after 5 days, read-out: efficacy. As for the experimental part:
[table] To produce a suitable active ingredient formulation, 1 part by weight of active ingredient is dissolved with the stated parts by weight of solvent and made up to the desired concentration with water. 50 μl of the active ingredient preparation are transferred into microtitre plates and made up to a final volume of 200 μl with 150 μl of IPL41 insect medium (33%+15% sugar). Subsequently, the plates are sealed with parafilm, which a mixed population of green peach aphids (Myzus persicae) within a second microtitre plate is able to puncture and imbibe the solution. After 5 days, the efficacy in % is determined. 100% means that all the aphids have been killed; 0% means that no aphids have been killed.

For assay [8], the system named is Ctenocephalides felis. Put plainly: Ctenocephalides felis oral test. The following applies: 100 ppm, after 2 days. The procedure:
Solvent: dimethyl sulfoxide To produce a suitable active ingredient formulation, 10 mg of active ingredient are mixed with 0.5 ml of dimethyl sulfoxide. Dilution with citrated cattle blood gives the desired concentration. About 20 unfed adult cat fleas (Ctenocephalides felis) are placed into a chamber which is closed at the top and bottom with gauze. A metal cylinder whose bottom end is closed with parafilm is placed onto the chamber. The cylinder contains the blood/active ingredient formulation, which can be imbibed by the fleas through the parafilm membrane. After 2 days, the kill in % is determined. 100% means that all of the fleas have been killed; 0% means that none of the fleas have been killed.

In assay [9] the test system is Ctenocephalides felis. Put plainly: Ctenocephalides felis in vitro contact test with adult cat fleas. The note with it: 5 μg/cm^2 (=500 g/ha), after 48 h. As for the experimental part: For the coating of the test tubes, 9 mg of active ingredient are first dissolved in 1 ml of acetone p.a. and then diluted to the desired concentration with acetone p.a. 250 μl of the solution are distributed homogeneously on the inner walls and the base of a 25 ml glass tube by turning and rocking on an orbital shaker (rocking rotation at 30 rpm for 2 h). With 900 ppm of active ingredient solution and internal surface area 44.7 cm^2, given homogeneous distribution, an area-based dose of 5 μg/cm^2 is achieved. After the solvent has evaporated off, the tubes are populated with 5-10 adult cat fleas (Ctenocephalides felis), sealed with a perforated plastic lid and incubated in a horizontal position at room temperature and ambient humidity. After 48 h, efficacy is determined. To this end, the tubes are stood upright and the fleas are knocked to the base of the tube. Fleas which remain motionless at the base or move in an uncoordinated manner are considered to be dead or moribund. […] 100% efficacy means that all the fleas were dead or moribund. 0% efficacy means that no fleas were harmed.

In assay [10] the test system is Lucilia cuprina. Nature of the assay: Lucilia cuprina test. The following applies: 48 h, L1 larvae, after 2 days, read-out: efficacy (kill). The procedure:
Solvent: dimethyl sulfoxide To produce a suitable active ingredient formulation, 10 mg of active ingredient are mixed with 0.5 ml of dimethyl sulfoxide, and the concentrate is diluted with water to the desired concentration. About 20 L1 larvae of the Australian sheep blowfly (Lucilia cuprina) are transferred into a test vessel containing minced horsemeat and the active ingredient formulation of the desired concentration. After 2 days, the kill in % is determined. 100% means that all the larvae have been killed; 0% means that no larvae have been killed.

Assay [11] deals with Aphis gossypii. Put plainly: Aphis gossypii spray test (APHIGO), cotton plants. The note with it: Aphis gossypii, 144 h, 20 ppm, 6 dat, read-out: % efficacy. The procedure:
[table] To produce an appropriate active ingredient formulation, 1 part by weight of active ingredient is dissolved with the specified parts by weight of solvent and made up with water containing an emulsifier concentration of 1000 ppm until the desired concentration is attained. To produce further test concentrations, the mixture is diluted with emulsifier-containing water. If addition of ammonium salts or/and penetrants is required, these are each added to the preparation solution in a concentration of 1000 ppm. Cotton plants (Gossypium hirsutum) severely infested by the cotton aphid (Aphis gossypii) are sprayed with an active ingredient formulation of the desired concentration. After the desired time, the kill in % is determined. 100% means that all aphids have been killed; 0% means that no aphids have been killed.

The test system of assay [12] is Meloidogyne incognita. Nature of the assay: Meloidogyne incognita test (MELGIN). The following applies: Meloidogyne incognita, 336 h, 14 days (14 dat), read-out: efficacy (nematicidal, gall formation). As for the experimental part:
[table] To produce a suitable active ingredient formulation, 1 part by weight of active ingredient is mixed with the stated amount of solvent and the concentrate is diluted to the desired concentration with water. Vessels are filled with sand, active ingredient solution, an egg/larvae suspension of the southern root-knot nematode (Meloidogyne incognita) and lettuce seeds. The lettuce seeds germinate and the plants develop. The galls develop on the roots. After 14 days, the nematicidal efficacy in % is determined by the formation of galls. 100% means that no galls were found; 0% means that the number of galls on the treated plants corresponds to the untreated control. [table] To produce an appropriate active ingredient formulation, 1 part by weight of active ingredient is mixed with the specified amount of solvent and the concentrate is diluted to the desired concentration with water. Vessels are filled with sand, active ingredient solution, an egg/larvae suspension of the southern root-knot nematode (Meloidogyne incognita) and lettuce seeds. The lettuce seeds germinate and the plants develop. The root-knots develop on the roots. After the desired time, the nematicidal effect is determined from the formation of root-knots in %. 100% means that no root-knots were found; 0% means that the number of root-knots on the treated plants corresponds to that on the untreated control.

The mark [13] stands for this setting: PHAECO, 7 dat, read-out: % efficacy.

As for `CCS(=O)(=O)c1ccc(N(C)C(=O)NC)nc1-c1nc2cc(C(F)(F)F)nnc2n1C` [reference compound], the figures for the Emax at 0.16 ppm in assay [1] (0.16 ppm) and in assay [3] (0.16 ppm) were 0% and 20%, respectively. Further, in assay [2], the Emax at 100 g/ha was determined as 0%. Besides, in [3] (0.8 ppm), the Emax at 0.8 ppm amounted to 65%. Moreover, the Emax at 4 g/ha in [4] (PHAECO, 4 g/ha, 7 dat, read-out: % efficacy) is 0%; in assay [5] (MYZUPE, 4 g/ha, 5 dat, read-out: % efficacy), 0%; in [6] (4 g/ha), 0%. For the same compound, the percent efficacy (larval mortality) at a fixed application rate at 20 g/ha in assay [4] (PHAECO, 7 dat) came to 33%.

With `CNC(=O)Nc1ccc(S(C)(=O)=O)c(-c2nc3cc(C(F)(F)C(F)(F)F)nnc3n2C)n1` [Example I-11], in assay [1], the Emax at 0.8 ppm was determined as 95%. The Emax at 4 ppm in assay [1] came to 98%. Moreover, the pest or weed control at 0.8 ppm in assay [7] amounted to 100%. Moreover, the “efficacy (kill)” value in assay [8] is reported as 100%. The compound also showed an efficacy in [9] of 100%. Moreover, the pest or weed control at 100 g/ha in assay [4] stood at 100%. Also, the Emax at 20 g/ha came to 83% in assay [4] (setting [13]) and 100% in assay [6]. In assay [10], the pest or weed control at 100 ppm was determined as 100%. The Emax at 20 ppm in assay [11] is 95%.

Consider `CN(C)C(=O)Nc1ccc(S(C)(=O)=O)c(-c2nc3cc(C(F)(F)C(F)(F)F)nnc3n2C)n1` [Example I-12], for which the pest or weed control at 0.8 ppm in [7] came out at 100%. The pest or weed control at 20 ppm in [12] was determined as 100%. Also, the “efficacy (kill)” value in [8] worked out at 100%. In assay [9], this compound showed an efficacy of 100%. Moreover, the pest or weed control at 100 g/ha in assay [4] amounted to 100%; in assay [5] (100 g/ha, 5 days (5 dat), read-out: efficacy), 90%. In [4] (PHAECO, 7 dat), this compound had a percent efficacy (larval mortality) at a fixed application rate at 20 g/ha of 100%. Also, in assay [5] (20 g/ha, 5 days (5 dat), read-out: efficacy), the pest or weed control at 20 g/ha was 90%. Further, the pest or weed control at 100 ppm in assay [10] was 100%.

As to `CNC(=O)Nc1ccc(S(C)(=O)=O)c(-c2nc3cc(C(F)(F)F)nnc3n2C)n1` [reference compound], in assay [1], the Emax at 0.8 ppm amounted to 0% and the Emax at 4 ppm worked out at 0%. Also, the pest or weed control at 100 g/ha in [4] was 33%. Also, the Emax at 20 g/ha in assay [4] (setting [13]) was 0%. In [6], the Emax at 20 g/ha turned out to be 0%. In assay [11], the Emax at 20 ppm was determined as 0%.

(Values after US11089783B2, “2-(het)aryl-substituted fused heterocycle derivatives as pesticides” (Bayer Aktiengesellschaft, priority 2017, dated 2021).)
